In patent US9856256B2, “Pyridino[1,2-A]pyrimidone analogue used as P13K inhibitor” (CHIA TAI TIANQING PHARMACEUTICAL GROUP CO., LTD., priority 2014, dated 2018) one finds IC50 data, which are given here for eleven compounds.

pIC50: −log10 of the molar value.

One test concerns the target T1, mTOR (Homo sapiens, UniProt P42345).
T1 construct: recombinant human mTOR fragment (amino acid 1360-2549, molecular weight=163.9 kDa); GST-tag (N); host or cells: insect cells
The test is described as follows: In vitro enzyme activity assay, mTOR kinase (32P-ATP, P81 filter-binding). Type of test: biochemical. The settings on record: 4EBPI substrate, 10 μM ATP; read-out: mTOR enzyme activity_IC50. The procedure:
mTOR kinase activities of the compounds in all the examples of the present invention were tested via the following method.
Reaction buffer: 20 mM Hepes (pH 7.5), 10 mM MgCl2, 2 mM MnCl2, 1 mM EGTA, 0.02% Brij35, 0.02 mg/mL BSA, 0.1 mM Na3VO4, 2 mM DTT, and 2% DMSO.
Enzyme for reaction: recombinant human mTOR fragment (amino acid 1360-2549, molecular weight=163.9 kDa) with a GST-tag at the N-terminus, which was expressed in insect cells.
Substrate for reaction: recombinant full-length human 4EBPI (molecular weight=13.6 kDa) with a His-tag at the N-terminus, which was expressed in bacteria.
Reaction conditions: […] 4EBPI and 10 μM ATP.
1. adding the reaction substrate and other reaction factors into the freshly prepared reaction buffer;
(§1) 2. adding the kinase into the substrate reaction solution, and mixing gently;
3. transferring the compound dissolved in 100% DMSO into the kinase reaction solution by using Acoustic technique (Echo550; nanoliter rang), and incubating at room temperature for 20 minutes;
4. adding an appropriate concentration of ^32P-ATP into the reaction system;
5. incubating at room temperature for 2 hours;
6. detecting the kinase activity by using P81 filter-binding method.

The test system of the next test is MCF-7 cells. The test is described as follows: In vitro cell activity assay (MCF-7, insulin stimulation, ELISA-One). Type of test: cell-based. The settings on record: Homo sapiens, MCF7, compound 2 hours in serum-free media, then 10 μg/ml insulin 30 min. As for the experimental part:
Experimental Steps and Method Comprise:
1. MCF-7 cells were seeded at 2,5000 cells per well in a 96 well tissue culture plate in a complete media containing 10%0/FBS.
3. The cells were treated with 10 μg/ml insulin in serum-free media for 30 min.
4. During waiting period, lysis solution was prepared as below:
a) Enhancer Solution needs to be taken out from the refrigerator to be thawed.
b) Concentrated lysis solution was prepared by diluting Enhancer Solution 10-fold in 5× Lysis Buffer.
c) Lysis solution was prepared by diluting concentrated lysis solution 5-fold with ddH2O.
5. Any media were removed from wells and the wells were rinsed with PBS once quickly.
6. 50 μL of freshly prepared lysis solution were added into each well, with shaking at room temperature for 10 min.
7. After confirming that all cells get detached from wells, the lysis solution together with the cell debris was transferred to 1.5 ml tubes.
8. The tubes were vortexed several times to thoroughly mix the lysis solution and cells, and then, and then the mixture was centrifuged at 12,000 g for 10 min at 4° C.;
9. The desired number of ELISA-One microplate strips was determined. Unused strips were removed from frame and returned to storage pouch and seal. Wells for use in the assay were rinsed with 200 μL ddH2O to remove preservatives prior to use.
10. 50 μL of antibody mixture solution was added into each well. (Antibody mixture solution was prepared by mixing capture antibody reagent and detection antibody reagent equally, avoid vortexing)
11. 25 μL of lysate was added into each well of the ELISA-One microplate. The microplate was covered with adhesive seal and incubated for 1 hour at room temperature on a microplate shaker.
12. Each well was washed with 150 μL 1× wash buffer 3 times. After final wash, any remaining wash buffer was removed from wells. If necessary, leave microplate in 1× Wash Buffer for up to 30 min, until substrate mixture solution has been prepared.
13. The substrate mixture solution should be prepared when used, 100 μL of substrate mixture solution was added into each well, and then the microplate was sealed with tin foil and incubated at room temperature for 10 minutes on a microplate shaker.
14. 10 μL of stop solution was added into each well, and then mixed slightly (5-10 seconds) on a microplate shaker.
15. Corresponding ELISA-One filter set was installed to read the fluorescence signal intensity.
For orientation: In an ELISA, binding on a coated surface is turned into a signal by an enzyme label.

In a further test the target is PI3K (p110α) (Homo sapiens, UniProt P42336). The test is described as follows: In vitro enzyme activity assay, PI3K (p110α) kinase, Method I (HTRF). Type of test: biochemical. More on the design: recombinant full-length human PI3K p110α subunit; His-tag (N); host or cells: insect cells. The conditions noted are these: 10 μM PI(4,5)P2 and 10 μM ATP), read-out: PI3K (p110α) enzyme activity_IC50. The procedure: PI3K (p110α) kinase activities of the compounds in all the examples of the present invention were tested via the following two methods, respectively.
Reaction buffer: HEPES 50 mM (pH7.0), NaN3 0.02%, BSA 0.01%. Orthovanadate 0.1 mM, and 1% DMSO.
Detection buffer: HEPES 10 mM (pH7.0), BSA 0.02%, KF 0.16 M, and EDTA 4 mM.
Enzymes for reaction: recombinant full-length human PI3K p110α subunit (molecular weight=128.4 kDa) with a His-tag at the N-terminus and unlabeled p85α subunit (molecular weight=83.6 kDa), which were expressed in insect cells.
Substrate for reaction: […] PIP2 substrate (PI(4,5)P2).
Reaction conditions: 10 μM PI(4,5)P2 and 10 μM ATP.
1. preparing the substrate in the freshly prepared reaction buffer;
as §1
3. transferring the compound dissolved in 100% DMSO into the kinase reaction solution by using Acoustic technique (Echo550; nanoliter rang), and incubating at room temperature for 10 minutes;
4. adding an appropriate concentration of ATP into the reaction system,
5. incubating at 30° C. for half an hour;
6. terminating the reaction by adding a stop solution;
7. adding the detection buffer and incubating overnight; and
8. detecting by using homogeneous time-resolved fluorescence (HTRF) method (excitation wavelength of 320 nm, measuring the ratio of the emission wavelength readings at 615 nm and 665 nm).
On the technique in general: Time-resolved FRET reads energy transfer from a long-lived donor to a nearby acceptor.

T1 sequence (P42345 1360-2549): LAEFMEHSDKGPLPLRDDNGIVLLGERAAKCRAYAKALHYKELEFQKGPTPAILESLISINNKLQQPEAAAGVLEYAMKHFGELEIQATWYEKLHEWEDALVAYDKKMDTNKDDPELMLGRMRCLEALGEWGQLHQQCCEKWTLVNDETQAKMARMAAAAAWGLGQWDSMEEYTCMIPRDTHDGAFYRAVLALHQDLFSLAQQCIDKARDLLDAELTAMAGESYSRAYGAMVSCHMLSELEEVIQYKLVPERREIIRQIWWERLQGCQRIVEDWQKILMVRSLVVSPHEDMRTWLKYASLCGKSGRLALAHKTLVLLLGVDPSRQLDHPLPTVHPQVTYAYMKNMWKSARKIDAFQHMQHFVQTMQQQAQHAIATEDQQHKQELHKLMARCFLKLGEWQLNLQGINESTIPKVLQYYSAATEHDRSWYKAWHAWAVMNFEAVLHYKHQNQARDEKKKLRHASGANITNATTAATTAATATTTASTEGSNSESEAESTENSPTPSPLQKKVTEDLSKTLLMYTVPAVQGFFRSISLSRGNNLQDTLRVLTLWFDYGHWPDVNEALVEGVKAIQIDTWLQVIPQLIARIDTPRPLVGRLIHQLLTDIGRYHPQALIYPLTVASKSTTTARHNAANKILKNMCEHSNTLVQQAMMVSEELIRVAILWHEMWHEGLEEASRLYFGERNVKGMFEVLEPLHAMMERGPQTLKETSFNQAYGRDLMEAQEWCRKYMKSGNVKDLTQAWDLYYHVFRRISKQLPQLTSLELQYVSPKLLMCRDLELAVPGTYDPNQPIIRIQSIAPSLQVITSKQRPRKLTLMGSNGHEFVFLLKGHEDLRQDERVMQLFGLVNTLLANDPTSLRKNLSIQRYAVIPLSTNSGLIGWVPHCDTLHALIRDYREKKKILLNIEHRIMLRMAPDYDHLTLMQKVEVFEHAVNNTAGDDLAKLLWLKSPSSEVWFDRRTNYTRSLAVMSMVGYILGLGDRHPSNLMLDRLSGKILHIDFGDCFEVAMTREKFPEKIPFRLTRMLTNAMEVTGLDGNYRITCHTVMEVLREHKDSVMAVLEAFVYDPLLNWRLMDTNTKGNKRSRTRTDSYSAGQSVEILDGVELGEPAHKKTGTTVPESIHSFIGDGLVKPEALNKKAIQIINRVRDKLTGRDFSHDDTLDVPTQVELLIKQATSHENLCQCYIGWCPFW
Chain of PI3K (p110α) (P42336 whole entry): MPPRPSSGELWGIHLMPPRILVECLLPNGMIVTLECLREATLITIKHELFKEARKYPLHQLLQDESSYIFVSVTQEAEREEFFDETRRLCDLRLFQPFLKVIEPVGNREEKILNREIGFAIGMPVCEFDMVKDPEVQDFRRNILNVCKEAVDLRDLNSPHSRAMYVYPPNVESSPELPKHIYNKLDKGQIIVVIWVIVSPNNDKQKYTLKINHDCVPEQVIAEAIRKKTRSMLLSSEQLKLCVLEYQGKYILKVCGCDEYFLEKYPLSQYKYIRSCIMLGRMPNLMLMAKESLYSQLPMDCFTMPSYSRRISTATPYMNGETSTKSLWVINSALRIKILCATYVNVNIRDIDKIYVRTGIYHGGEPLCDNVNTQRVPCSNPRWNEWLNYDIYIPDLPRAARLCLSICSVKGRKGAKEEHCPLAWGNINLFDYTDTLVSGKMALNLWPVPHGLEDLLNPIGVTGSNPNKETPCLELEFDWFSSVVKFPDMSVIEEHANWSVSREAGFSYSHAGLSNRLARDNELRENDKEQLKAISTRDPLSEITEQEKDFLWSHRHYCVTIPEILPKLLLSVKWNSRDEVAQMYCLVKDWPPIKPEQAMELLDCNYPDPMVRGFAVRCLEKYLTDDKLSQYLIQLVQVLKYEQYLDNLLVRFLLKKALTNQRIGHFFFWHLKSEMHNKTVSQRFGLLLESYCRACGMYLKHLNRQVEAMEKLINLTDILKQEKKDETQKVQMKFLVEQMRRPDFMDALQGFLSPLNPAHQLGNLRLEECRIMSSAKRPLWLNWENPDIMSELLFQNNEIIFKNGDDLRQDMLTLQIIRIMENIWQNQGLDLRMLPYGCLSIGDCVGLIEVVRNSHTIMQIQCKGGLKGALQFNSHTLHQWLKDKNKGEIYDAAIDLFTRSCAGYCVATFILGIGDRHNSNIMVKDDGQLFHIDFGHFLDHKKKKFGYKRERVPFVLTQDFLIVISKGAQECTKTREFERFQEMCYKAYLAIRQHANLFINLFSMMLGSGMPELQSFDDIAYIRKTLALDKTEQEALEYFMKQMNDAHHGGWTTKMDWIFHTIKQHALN
Chain of PI3K (p110α) (P27986 whole entry partner): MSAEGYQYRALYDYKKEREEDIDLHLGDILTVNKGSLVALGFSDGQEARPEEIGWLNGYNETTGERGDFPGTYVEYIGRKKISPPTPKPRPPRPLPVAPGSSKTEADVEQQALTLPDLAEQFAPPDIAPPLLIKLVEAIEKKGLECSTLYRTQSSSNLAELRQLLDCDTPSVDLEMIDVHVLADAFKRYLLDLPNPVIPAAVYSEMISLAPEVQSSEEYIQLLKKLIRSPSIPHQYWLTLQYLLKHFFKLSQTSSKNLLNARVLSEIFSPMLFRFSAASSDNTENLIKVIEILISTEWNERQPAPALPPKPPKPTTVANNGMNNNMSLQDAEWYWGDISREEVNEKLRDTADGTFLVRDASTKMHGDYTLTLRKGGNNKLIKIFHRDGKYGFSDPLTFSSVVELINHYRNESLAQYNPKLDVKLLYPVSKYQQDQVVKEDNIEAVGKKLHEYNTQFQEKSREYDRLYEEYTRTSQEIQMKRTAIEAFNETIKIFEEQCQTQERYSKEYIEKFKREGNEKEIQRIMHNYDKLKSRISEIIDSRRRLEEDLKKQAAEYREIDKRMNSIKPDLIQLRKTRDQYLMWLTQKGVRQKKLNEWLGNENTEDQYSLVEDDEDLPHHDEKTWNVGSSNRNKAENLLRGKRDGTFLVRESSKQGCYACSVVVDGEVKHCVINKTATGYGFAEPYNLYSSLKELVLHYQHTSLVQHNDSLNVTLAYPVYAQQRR

As for `COc1ncc(-c2ccc3ncc(OCCN4CCOCC4)c(=O)n3c2)cc1NS(=O)(=O)c1ccc(Cl)s1` [Compound 14], the pIC50 on mTOR is < 6.70; in the test with MCF-7 cells it was ≥ 7.30; on PI3K (p110α), ≥ 9.00.

As for `COc1ncc(-c2ccc3ncc(OCCN4CCOCC4)c(=O)n3c2)cc1NS(=O)(=O)c1ccc(F)cc1C` [Compound 8], the pIC50 on mTOR is < 6.70; in the test on MCF-7 cells, 7.00 to 7.30; at PI3K (p110α) it was ≥ 9.00.

Regarding `Cc1nc(C)c(S(=O)(=O)Nc2cc(-c3ccc4ncc(OCCN5CCOCC5)c(=O)n4c3)cnc2N)s1` [Compound 12], the pIC50 was 6.70 to 7.30 at mTOR, < 6.60 in the test on MCF-7 cells and ≥ 9.00 on PI3K (p110α).

`COc1ncc(-c2ccc3ncc(OCCN4CCC(F)CC4)c(=O)n3c2)cc1NS(=O)(=O)c1sc(C)nc1C` [Compound 2]: the pIC50 is 6.70 to 7.30 on mTOR, ≥ 7.30 in the test on MCF-7 cells and ≥ 9.00 on PI3K (p110α).

Regarding `COc1ncc(-c2ccc3ncc(OCCN4CCOCC4)c(=O)n3c2)cc1NS(=O)(=O)c1ccccc1F` [Compound 9], the pIC50 on mTOR is < 6.70; with MCF-7 cells it was 6.60 to 7.00; at PI3K (p110α) it was ≥ 9.00.

Consider `COc1ncc(-c2ccc3ncc(OCCN4CCOCC4)c(=O)n3c2)cc1NS(=O)(=O)c1ccccc1Cl` [Compound 10], for which the values for the pIC50 at mTOR, in the test with MCF-7 cells and on PI3K (p110α) were < 6.70, 7.00 to 7.30 and ≥ 9.00, respectively.

Take `COc1ncc(-c2ccc3ncc(OCCN4CCOCC4)c(=O)n3c2)cc1NS(=O)(=O)c1ccc(C)cc1C` [Compound 7, 2,4-Dimethyl-N-(2-methoxy-5-(3-(2-morpholinoethoxy)-4-oxo-4H-pyrido[1,2-a]pyrimidin-4-one-7-yl)pyridin-3-yl)benzenesulfonamide]: the results for the pIC50 on mTOR, with MCF-7 cells and at PI3K (p110α) were < 6.70, ≥ 7.30 and ≥ 9.00, respectively.

As for `COc1ncc(-c2ccc3ncc(OCCN4CCNCC4)c(=O)n3c2)cc1NS(=O)(=O)c1sc(C)nc1C` [Compound 3], the pIC50 on mTOR is < 6.70; in the test with MCF-7 cells it was < 6.60; on PI3K (p110α), ≥ 9.00.

As for `COc1ncc(-c2ccc3ncc(OCCN(C)C)c(=O)n3c2)cc1NS(=O)(=O)c1sc(C)nc1C` [Compound 35], the results for the pIC50 at mTOR, with MCF-7 cells and at PI3K (p110α) were 6.70 to 7.30, ≥ 7.30 and ≥ 9.00, respectively.

`COc1ncc(-c2ccc3ncc(OCCN(C)C)c(=O)n3c2)cc1NS(=O)(=O)c1ccc(F)cc1F` [Compound 43]: the pIC50 is < 6.70 at mTOR, 7.00 to 7.30 in the test on MCF-7 cells and ≥ 9.00 on PI3K (p110α).

Consider `COc1ncc(-c2ccc3ncc(OCCN4CCC(F)(F)CC4)c(=O)n3c2)cc1NS(=O)(=O)c1sc(C)nc1C` [Compound 1, N-(5-(3-(2-(4,4-difluoro-1-piperidinyl)ethoxy)-4-oxo-pyrido[1,2-a]pyrimidin-7-yl]-2-methoxypyridin-3-yl]-2,4-dimethylthiazole-5-sulfonamide], for which the pIC50 at mTOR is 6.70 to 7.30; with MCF-7 cells, ≥ 7.30; at PI3K (p110α), ≥ 9.00.
